Data: ChEMBL document CHEMBL1201862, “PubChem BioAssay data set” (2004)
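Exposure lasted 48 hours, with cells grown in 96-well plates and compounds tested at five concentrations. GI50 = concentration required for 50% inhibition of growth.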 The source made the active and inactive calls. No stated cut-off is given here; in the data, active = GI50 up to about 1.1 µM and inactive = higher.

Legend:
Test in all cases: DTP human tumour cell line panel, 48 h
SF-539 = system: SF-539
MOLT-4 = system: MOLT-4
A549 = system: A549
MDA-MB-435 = system: MDA-MB-435
HOP-92 = system: HOP-92
SR = system: SR
A498 = system: A498
HCT-116 = system: HCT-116
UACC-62 = system: UACC-62
PC-3 = system: PC-3
MCF7 = system: MCF7
Hs-578T = system: Hs-578T
OVCAR-5 = system: OVCAR-5
IGROV-1 = system: IGROV-1
K562 = system: K562
OVCAR-8 = system: OVCAR-8
SK-MEL-5 = system: SK-MEL-5
LOX IMVI = system: LOX IMVI
SF-268 = system: SF-268
SW-620 = system: SW-620
OVCAR-3 = system: OVCAR-3
OVCAR-4 = system: OVCAR-4
Malme-3M = system: Malme-3M
M14 = system: M14
HT-29 = system: HT-29
RPMI-8226 = system: RPMI-8226
U-251 = system: U-251
786-0 = system: 786-0
UO-31 = system: UO-31
SNB-75 = system: SNB-75
RXF 393 = system: RXF 393
HCT-15 = system: HCT-15
NCI-H226 = system: NCI-H226
MDA-MB-231 = system: MDA-MB-231
SK-OV-3 = system: SK-OV-3
UACC-257 = system: UACC-257
COLO 205 = system: COLO 205
CAKI-1 = system: CAKI-1
SNB-19 = system: SNB-19
SF-295 = system: SF-295
DU-145 = system: DU-145
HOP-62 = system: HOP-62
SN12C = system: SN12C
NCI-H522 = system: NCI-H522
SK-MEL-2 = system: SK-MEL-2
ACHN = system: ACHN
BT-549 = system: BT-549
SK-MEL-28 = system: SK-MEL-28
NCI/ADR-RES = system: NCI/ADR-RES
T47D = system: T47D
KM12 = system: KM12
HCC 2998 = system: HCC 2998
EKVX = system: EKVX
MDA-N = system: MDA-N
NCI-H23 = system: NCI-H23
TK-10 = system: TK-10
NCI-H460 = system: NCI-H460

For `c1ccc(CN2CCC3(CC2)SSC2(CCN(Cc4ccccc4)CC2)SS3)cc1`, the GI50 (SF-539) was > 100 µM (inactive), the GI50 (MOLT-4) was > 100 µM (inactive) and the GI50 (A549) was > 100 µM (inactive). The GI50 (MDA-MB-435) was > 100 µM (inactive), the GI50 (HOP-92) was > 100 µM (inactive) and the GI50 (SR) was 83.2 µM (inactive). For the same compound, the GI50 (A498) was > 100 µM (inactive), the GI50 (HCT-116) was > 100 µM (inactive) and the GI50 (UACC-62) was > 100 µM (inactive). For the same compound, the GI50 (PC-3) was > 100 µM (inactive), the GI50 (MCF7) was > 100 µM (inactive) and the GI50 (Hs-578T) was > 100 µM (inactive). The GI50 (OVCAR-5) was > 100 µM (inactive), the GI50 (IGROV-1) was > 100 µM (inactive) and the GI50 (K562) was > 100 µM (inactive). The GI50 (OVCAR-8) was > 100 µM (inactive), the GI50 (SK-MEL-5) was 57.3 µM (inactive) and the GI50 (LOX IMVI) was > 100 µM (inactive). The GI50 (SF-268) was > 100 µM (inactive), the GI50 (SW-620) was 5.48 µM (inactive) and the GI50 (OVCAR-3) was > 100 µM (inactive). For the same compound, the GI50 (OVCAR-4) was > 100 µM (inactive), the GI50 (Malme-3M) was 97.5 µM (inactive) and the GI50 (M14) was > 100 µM (inactive). For the same compound, the GI50 (HT-29) was 27.2 µM (inactive), the GI50 (RPMI-8226) was > 100 µM (inactive) and the GI50 (U-251) was > 100 µM (inactive). For the same compound, the GI50 (786-0) was > 100 µM (inactive), the GI50 (UO-31) was > 100 µM (inactive) and the GI50 (SNB-75) was > 100 µM (inactive). For the same compound, the GI50 (RXF 393) was > 100 µM (inactive), the GI50 (HCT-15) was > 100 µM and the GI50 (NCI-H226) was > 100 µM (inactive). For the same compound, the GI50 (MDA-MB-231) was > 100 µM (inactive), the GI50 (SK-OV-3) was > 100 µM (inactive) and the GI50 (UACC-257) was 59.7 µM (inactive). For the same compound, the GI50 (COLO 205) was 64 µM (inactive), the GI50 (CAKI-1) was > 100 µM (inactive) and the GI50 (SNB-19) was > 100 µM (inactive). The GI50 (SF-295) was > 100 µM (inactive), the GI50 (DU-145) was > 100 µM (inactive) and the GI50 (HOP-62) was > 100 µM (inactive). For the same compound, the GI50 (SN12C) was > 100 µM (inactive), the GI50 (NCI-H522) was 37 µM (inactive) and the GI50 (SK-MEL-2) was > 100 µM (inactive). For the same compound, the GI50 (ACHN) was > 100 µM (inactive), the GI50 (BT-549) was > 100 µM (inactive) and the GI50 (SK-MEL-28) was 34.9 µM (inactive). The GI50 (NCI/ADR-RES) was > 100 µM (inactive), the GI50 (T47D) was > 100 µM (inactive) and the GI50 (KM12) was > 100 µM (inactive). The GI50 (HCC 2998) was 45.5 µM (inactive), the GI50 (EKVX) was 12.9 µM (inactive) and the GI50 (MDA-N) was > 100 µM (inactive). For the same compound, the GI50 (NCI-H23) was 79.1 µM (inactive), the GI50 (TK-10) was > 100 µM (inactive) and the GI50 (NCI-H460) was > 100 µM (inactive).
